In patent US20120065152A1 (SHIRE LLC, priority 2010, published 2012):
Where “and” joins values, the source holds several entries; their conditions need not be identical. Identical values can stand only once. Counter-ions that a name gives are not always drawn.

Tests used:
[1] = Stability studies on guanfacine prodrugs in buffers; assay type: physicochemical
[2] = Comparative bioavailability study of guanfacine in monkeys given guanfacine or guanfacine prodrug; assay type: in vivo, monkey; conditions: for Cmax: monkey, plasma, po, 0.5 mg/kg; for Prodrug Cmax: monkeys, 0.5 mg/kg guanfacine free base equivalents
Method: Blood samples were taken at various times after administration and submitted to analysis for the parent drug and prodrug using a qualified LC-MS-MS assay. The following pharmacokinetic parameters derived from the plasma analytical data were determined using Win Nonlin;

rat = test: Elevated Plus-Maze Test in the rat; assay type: in vivo
From the text: The method, which detects anxiolytic activity, follows that described by Handley and Mithani (Naunyn. Schmied. Arch. Pharmacol., 327, 1-5, 1984). Rodents avoid open spaces (the open arms of an elevated plus-maze). The percentage of time spent on the open arms and the number of entries in the open arms are considered to be the best measures of anxiety (File, S. E. 1991. Animal models of anxiety. In Biological Psychiatry (G. Racagni, N. Brunello, and T. Fukuda, eds.) pp. 596-599. Elsevier, New York.).
Anxiolytics increase exploratory activity in the open arms, as indicated by increased time spent on the open arms and/or by increased % open-arm entries.

[3] = as early as; cited from earlier work
rat GIT transit = test: Charcoal propulsion test (gut motility) in rat; assay type: in vivo; conditions: oral; for % inhibition of rat GIT transit: 60 min before charcoal
Method: The effect of a drug on gut motility can be studied by means of the charcoal propulsion test.
The method used was based on that described by Takemori et al. (J. Pharmacol. Exp. Ther. 169:39, 1969). Test treatments were administered orally 60 minutes prior to an oral dose of a 10% suspension of charcoal in 2.5% gum Arabic (2 ml/kg). Twenty minutes after dosing with charcoal, the rats were sacrificed and the entire gastrointestinal tract was removed quickly and carefully. The distance that the charcoal meal had traveled toward the caecum was measured and expressed as a percentage of the total gut length.

[4] = pH 1.2, 37° C., 0.1M HCl/NaCl buffer, 1 h
[5] = pH 1.2, 37° C., 0.1M HCl/NaCl buffer, time 0
[6] = pH 3.0, 20° C., 0.1M citrate buffer, 2 h
[7] = pH 3.0, 20° C., 0.1M citrate buffer, time 0
[8] = pH 6.8, 37° C., 0.1M phosphate buffer, 2 h
[9] = pH 6.8, 37° C., 0.1M phosphate buffer, time 0
[10] = pH 7.4, 37° C., 0.1M phosphate buffer, 2 h, listed as Guanfacine (2-Hydroxyethyl) Carbamate
[11] = pH 7.4, 37° C., 0.1M phosphate buffer, time 0
[12] = DMSO, organic solvent or mixture, Solubility, in DMSO
[13] = water/CH3CN (1:1), aqueous with cosolvent or surfactant or cyclodextrin, Solubility, in water/CH3CN (1:1)
[14] = pH 7.4, 37° C., 0.1M phosphate buffer, 2 h
[15] = pH 1.2, 37° C., 0.1M HCl/NaCl buffer, 1 h, Hydrochloride

Compound | Active drug [1, 4] | Active drug [1, 5] | Pro-drug [1, 5] | Active drug [1, 6] | Active drug [1, 7] | Pro-drug [1, 7] | Active drug [1, 8] | Active drug [1, 9] | Pro-drug [1, 9] | Active drug [1, 11] | Pro-drug [1, 11] | solubility (Solubility; [12]) [µg/mL] | solubility (Solubility; water, Solubility, in water) [µg/mL] | solubility (Solubility; [13]) [µg/mL] | Active drug [1, 14] | Prodrug Cmax [2] | further results
NC(=NC(=O)Cc1c(Cl)cccc1Cl)NC(=O)OCCO [Compound 19, 2-{N′-[2-(2,6-Dichloro-phenyl)-acetyl]-guanidinocarbonyloxy}ethanol] | 0.5 | 0.0 | 100 | 0.4 | 0.0 | 100 | 9.8 | 0.0 | 100 | 0.0 | 100 | > 10000 | < 1000 | > 10000 | – | – | Pro-drug ([1]; pH 1.2, 37° C., 0.1M HCl/NaCl buffer, 1 h, listed as Guanfacine (2-Hydroxyethyl) Carbamate): 91.4 and 91.5; Pro-drug [1, 6]: 98.0; Pro-drug ([1]; pH 6.8, 37° C., 0.1M phosphate buffer, 2 h, listed as Guanfacine (2-Hydroxyethyl) Carbamate): 87.4 and 87.5; Active drug [1, 10]: 22.6 and 22.3; Pro-drug [1, 10]: 72.5 and 73.0; Cmax [2]: 60.8 ng/mL; Change in time spent in the open arms (rat; 10 mg/kg, NS): +69%; Change in percent of entries in open arms (rat; 10 mg/kg, p<0.05): +87%; Efficacy in the Elevated Plus-Maze Test (rat; rat): efficacious
CCCCOC(=O)NC(N)=NC(=O)Cc1c(Cl)cccc1Cl.Cl [Compound 6, 1-{N′-[2-(2,6-Dichloro-phenyl)-acetyl]-guanidinocarbonyloxy}butane Hydrochloride] | 0.0 | 0.0 | 100 | 0.0 | 0.0 | 100 | 0.0 | 0.0 | 100 | 0.0 | 100 | > 10000 | < 1000 | > 1000 | 0.0 | BLQ | Pro-drug [1, 4]: 94.0; Pro-drug ([1]; pH 3.0, 20° C., 0.1M citrate buffer, 2 h, listed as Guanfacine N-Butyl Carbamate Hydrochloride, Hydrochloride): 94.6 and 94.9; Pro-drug ([1]; pH 6.8, 37° C., 0.1M phosphate buffer, 2 h, listed as Guanfacine N-Butyl Carbamate Hydrochloride, Hydrochloride): 90.9 and 90.7; Pro-drug ([1]; pH 7.4, 37° C., 0.1M phosphate buffer, 2 h, listed as Guanfacine N-Butyl Carbamate Hydrochloride, Hydrochloride): 90.7 and 91.0
CC(C)OC(=O)NC(N)=NC(=O)Cc1c(Cl)cccc1Cl.Cl [Compound 5, 2-{N′-[2-(2,6-Dichloro-phenyl)acetyl]-guanidinocarbonyloxy}propane Hydrochloride] | – | – | – | – | – | – | – | – | – | – | – | > 10000 | < 1000 | – | – | BLQ | solubility (Solubility; 3.0 mL CH3CN/3.0 mL H2O, aqueous with cosolvent or surfactant or cyclodextrin, Solubility, in 3.0 mL CH3CN/3.0 mL H2O): > 833 µg/mL
NC(=NC(=O)Cc1c(Cl)cccc1Cl)NC(=O)OCCCO [Compound 22, 3-{N′-[2-(2,6-Dichloro-phenyl)-acetyl]-guanidinocarbonyloxy}propan-1-ol] | 0.0 | 0.0 | 100 | 0.0 | 0.0 | 100 | 0.0 | 0.0 | 100 | 0.0 | 100 | > 10000 | < 1000 | > 10000 | 0.0 | – | Pro-drug ([1]; pH 1.2, 37° C., 0.1M HCl/NaCl buffer, 1 h, listed as Guanfacine (3-Hydroxypropyl) Carbamate): 94.8 and 94.9; Pro-drug ([1]; pH 3.0, 20° C., 0.1M citrate buffer, 2 h, listed as Guanfacine (3-Hydroxypropyl) Carbamate): 98.1 and 98.3; Pro-drug ([1]; pH 6.8, 37° C., 0.1M phosphate buffer, 2 h, listed as Guanfacine (3-Hydroxypropyl) Carbamate): 99.2 and 99.7; Pro-drug [1, 14]: 98.2; Cmax [2]: 3.49 ng/mL
N=C(N)NC(=O)Cc1c(Cl)cccc1Cl [Guanfacine, N-Amidino-2-(2,6-dichlorophenyl)acetamide monohydrochloride, reference compound] | – | – | – | – | – | – | – | – | – | – | – | – | – | – | – | – | Time after dosing at which peak plasma drug levels are reached [3]: ≥ 1 h; % inhibition of rat GIT transit (rat GIT transit; dose 00.1 mg/kg (guanfacine free base equivalents)): 41%; % inhibition of rat GIT transit (rat GIT transit; dose 00.3 mg/kg (guanfacine free base equivalents)): 56%; Reduction in the distance traveled by the charcoal plug within 20 minutes, compared to control group (rat GIT transit; 0.1 mg base/kg): about 41%
CCCOC(=O)NC(N)=NC(=O)Cc1c(Cl)cccc1Cl.Cl [Compound 4, 1-{N′-[2-(2,6-Dichloro-phenyl)acetyl]-guanidinocarbonyloxy}propane Hydrochloride] | 0.0 | 0.0 | 100 | 0.0 | 0.0 | 100 | 0.0 | 0.0 | 100 | 0.0 | 100 | > 10000 | < 1000 | > 1000 | 0.0 | BLQ | Pro-drug ([1]; pH 1.2, 37° C., 0.1M HCl/NaCl buffer, 1 h, listed as Guanfacine N-Propyl Carbamate Hydrochloride, Hydrochloride): 94.4 and 94.6; Pro-drug ([1]; pH 3.0, 20° C., 0.1M citrate buffer, 2 h, listed as Guanfacine N-Propyl Carbamate Hydrochloride, Hydrochloride): 94.0 and 94.4; Pro-drug ([1]; pH 6.8, 37° C., 0.1M phosphate buffer, 2 h, listed as Guanfacine N-Propyl Carbamate Hydrochloride, Hydrochloride): 95.8 and 96.4; Pro-drug ([1]; pH 7.4, 37° C., 0.1M phosphate buffer, 2 h, listed as Guanfacine N-Propyl Carbamate Hydrochloride, Hydrochloride): 96.3 and 96.0
CCC(C)OC(=O)NC(N)=NC(=O)Cc1c(Cl)cccc1Cl.Cl (stereo not drawn) [Compound 7, 2-{N′-[2-(2,6-Dichloro-phenyl)-acetyl]-guanidinocarbonyloxy}-butane Hydrochloride] | 0.0 | 0.0 | 100 | 0.0 | 0.0 | 100 | 0.0 | 0.0 | 100 | 0.0 | 100 | – | – | – | 0.0 | – | Pro-drug [1, 4]: 95.9; Pro-drug ([1]; pH 3.0, 20° C., 0.1M citrate buffer, 2 h, listed as Guanfacine 2-Butanol Carbamate Hydrochloride, Hydrochloride): 98.7 and 98.9; Pro-drug [1, 8]: 93.4; Pro-drug ([1]; pH 7.4, 37° C., 0.1M phosphate buffer, 2 h, listed as Guanfacine 2-Butanol Carbamate Hydrochloride, Hydrochloride): 93.4 and 93.6; solubility (physchem; organic solvent or mixture): > 10000 µg/mL; solubility (physchem; water): < 1000 µg/mL
CCSC(=O)NC(N)=NC(=O)Cc1c(Cl)cccc1Cl.Cl [Compound 30, Guanfacine Ethanethiol Carbamate Hydrochloride] | – | 0.0 | 100 | 0.0 | 0.0 | 100 | 0.0 | 0.0 | 100 | 0.0 | 100 | – | – | – | 0.0 | BLQ | Active drug [1, 15]: 10.1 and 11.0; Pro-drug [1, 15]: 81.0 and 80.4; Pro-drug ([1]; pH 3.0, 20° C., 0.1M citrate buffer, 2 h, Hydrochloride): 85.6 and 84.8; Pro-drug ([1]; pH 6.8, 37° C., 0.1M phosphate buffer, 2 h, Hydrochloride): 93.0 and 92.5; Pro-drug ([1]; pH 7.4, 37° C., 0.1M phosphate buffer, 2 h, Hydrochloride): 94.5 and 95.2; solubility (Solubility; in DMSO): > 10000 µg/mL; solubility (Solubility; in water): < 1000 µg/mL; solubility (Solubility; in water/CH3CN (1:2)): > 5000 µg/mL
